The results in this text go back to patent US10189824B2, “Pyrimidine-diamine dual HSP90/TRAP1 inhibitors” (CalAsia Pharmaceuticals, Inc., priority 2014, dated 2019).

Assay [1] has as its system Hsp90 client proteins (Akt1, ERK1) in HEI193. The assay can be described thus: Cellular biomarker assays (Akt1, ERK1 ELISA) in HEI193. To be noted: 48 hour treatment. The assay is classed as cell-based, human. How it is done:
(§1) Cellular biomarker assays: Cells were cultured in culture medium (RPMI-glutamax, 10% FCS, 100 units/ml penicillin, and 100 μg/ml streptomycin). Cells were passaged after lifting using 0.25% trypsin/EDTA, and 3×10^5 cells were seeded in each well of six well plates (total volume 2.5 mL/well). After the cells were cultured for 24 hours, increasing concentrations of Hsp90 inhibitor were added to wells in triplicate from DMSO-containing stock solutions and mixed by gently by stirring. Final DMSO concentration in all wells was 0.25%. The treated cells were then cultured for 48 hours prior to lysate preparation. The culture media was removed from wells, and the wells were washed twice with DPBS containing 1 mM CaCl2 and 0.5 mM MgCl2. […] The protein concentration in the cell lysates was determined using the BCA protein assay kit used according to the manufacturer's recommendations. […] Protein concentrations were determined using a micro-titer plate reader (Model # Synergy HT; BioTek Inc., Winooski, Vt.).
(§2) Akt1 and ERK1 levels in the cell lysates were measured using kits from R&D Systems used according to the manufacturer's recommendations. […] Akt1 and ERK1 levels were determined using a micro-titer plate reader (Model # Synergy HT; BioTek Inc., Winooski, Vt.) (FIGS. 5 and 8).

Assay [2] concerns the target T1, TRAP1 (Homo sapiens, UniProt Q12931).
T1 construct: Recombinant full-length human Hsp90 and 459 TRAP1 were cloned; 6His (TEV-cleavable) (N); made in house; host or cells: E. coli BL21 (DE3)
T1 sequence (Q12931 60-704): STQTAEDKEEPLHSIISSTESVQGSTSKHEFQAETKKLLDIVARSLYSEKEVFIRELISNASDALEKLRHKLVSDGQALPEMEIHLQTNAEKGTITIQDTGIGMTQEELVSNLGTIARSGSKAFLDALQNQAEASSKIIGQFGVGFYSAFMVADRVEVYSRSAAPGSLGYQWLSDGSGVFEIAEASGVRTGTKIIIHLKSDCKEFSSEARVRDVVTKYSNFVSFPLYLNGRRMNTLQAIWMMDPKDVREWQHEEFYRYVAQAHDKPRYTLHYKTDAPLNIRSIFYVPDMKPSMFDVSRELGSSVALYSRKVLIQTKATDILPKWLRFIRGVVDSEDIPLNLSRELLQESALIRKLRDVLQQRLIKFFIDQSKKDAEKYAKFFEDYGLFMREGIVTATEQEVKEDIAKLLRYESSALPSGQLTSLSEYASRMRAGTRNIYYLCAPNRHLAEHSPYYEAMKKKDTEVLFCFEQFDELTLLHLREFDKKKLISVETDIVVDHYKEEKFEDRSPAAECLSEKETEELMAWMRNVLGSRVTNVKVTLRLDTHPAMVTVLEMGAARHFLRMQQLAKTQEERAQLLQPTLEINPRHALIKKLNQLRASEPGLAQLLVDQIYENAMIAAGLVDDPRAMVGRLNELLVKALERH
The assay can be described thus: Fluorescence polarization (FP) displacement assay, GA-FITC, TRAP1. The assay is classed as binding. Conditions: FP displacement of GA-FITC, 200 nM TRAP1; for Ki: NA: Not active, read-out: Biochemical efficacy TRAP1 Ki; for IC50: read-out: Biochemical efficacy TRAP1 IC50. On the procedure:
(§3) Prior to transforming into BL21 (DE3) all the cloned vectors were sequence confirmed. Expressed proteins were purified using NTA resin (Life Technologies) followed by size exclusion chromatography using FPLC. The molecular mass of the purified proteins was confirmed by MALDI-TOF and assessed for purity by SDS-PAGE.
(§4) The assay conditions were 20 mM HEPES, pH-7.5, 50 mM KCl, 5 mM MgCl2, 20 mM sodium molybdate, 2 mM DTT, 0.01% NP40, 100 ug/ml BSA, 50 nM Hsp90 or 200 nM TRAP1, 1% DMSO, and 8 nM (for Hsp90) or 20 nM (for TRAP1) GA-FITC in the presence of increasing concentrations of test compound.

Assay [3] deals with GBM43. The assay is described as follows: Cellular efficacy in Mayo Clinic GBM PDX cell line GBM43. The assay is classed as cell-based. On the procedure:
(§5) Short-term explant cultures from PDX models were seeded into 96-well Perfecta3D hanging drop plates to form a single spheroid in each well after 2 days. The spheroids were transferred to a round bottom 96 well plate by centrifugation and then incubated with graded concentrations of test compound (8 spheroids per compound concentration). Spheroid volumes were monitored every 6 hours over the course of 5 days using the IncuCyte system (Essen BioScience, MI, US) to provide a growth curve akin to a tumor regrowth assay.

Assay [4] deals with Mayo Clinic patient derived GBM tumor cells. The assay is described as follows: Mayo Clinic patient derived GBM tumor cell proliferation. The assay is classed as cell-based. Conditions: 132 hours. On the procedure:
as §5

The target of assay [5] is human Hsp90. The assay is described as follows: Fluorescence polarization (FP) displacement assay, GA-FITC, Hsp90. The assay is classed as binding. To be noted: FP displacement of GA-FITC, 50 nM Hsp90; for IC50: read-out: Biochemical efficacy HSP90 IC50; for Ki: read-out: Biochemical efficacy HSP90 Ki. On the procedure:
as §3, §4

The test system of assay [6] is Hsp90 client proteins (EGFR and Akt1) in Mayo Clinic GBM PDX cell lines. The assay is described as follows: Cellular biomarker assays (EGFR, Akt1 ELISA) in Mayo Clinic GBM PDX cell lines. The assay is classed as cell-based. To be noted: 48 hours; three cell lines.
For assay [7], the system named is GBM10. The assay is described as follows: Cellular efficacy in Mayo Clinic GBM PDX cell line GBM10. The assay is classed as cell-based. How it is done:
as §5

Assay [8] deals with GBM39. The assay is described as follows: Cellular efficacy in Mayo Clinic GBM PDX cell line GBM39. The assay is classed as cell-based. On the procedure:
as §5

The subject of assay [9] is Hsp90 client proteins (Akt1, ERK1) in MDA-MB-231 cell line. The assay can be described thus: Cellular biomarker assays (Akt1, ERK1 ELISA) in MDA-MB-231. The assay is classed as cell-based. Conditions: 48 hours. How it is done: as §1, §2
Assay [10] relates to HEI193 cells. The assay is described as follows: TMRE assay, HEI193 cell mitochondrial integrity. The assay is classed as cell-based, human. Conditions: observed as early as 2 hours after treatment. On the procedure:
Mitochondrial integrity was evaluated using Tetramethylrhodamine ethyl ester (TMRE) assay. A TMRE assay kit (Abcam) was used to evaluate Hsp90/TRAP1 inhibitor-induced changes in mitochondrial membrane potential. […] TMRE (200 nM) was then added to wells for 30 min and monitored for changes in fluorescence activity using a fluorescence plate reader (ex544/em 590) after washing the cells. Specific TMRE fluorescence was calculated by comparison to matched wells pretreated with the depolarizing proton ionophore carbonyl cyanide 4-(trifluoromethoxy)phenylhydrazone (FCCP) at 20 uM 10 min prior to addition of TMRE. For mitochondria assays, mitochondria was isolated using a kit from Thermoscientific and loaded with 0.1 mM TMRE. TMRE-loaded mitochondria (2 μg per well) were incubated with test compounds and monitored kinetically at 30° C. for changes in fluorescence using a flurorescence plate reader (ex 544/em 590) (FIGS. 6A, 9A and 12).

SMILES strings stand for the structures.

On to `Cc1cnc(CN(CC2(c3ccc(F)cc3)CCOCC2)c2cc(Cl)nc(N)n2)c(C)c1Cl` [Compound B, 6-chloro-4-N-[(4-chloro-3,5-dimethylpyridin-2-yl)methyl]-4-N-{[4-(4-fluorophenyl)oxan-4-yl]methyl}pyrimidine-2,4-diamine], for which the “Effect on Akt1 and ERK1 levels, HEI193” value in assay [1] is “reduction of Hsp90 client proteins”. For the same compound, the Ki turned out to be 0.011 µM in assay [2] and 0.008 µM in assay [5]. Further, the IC50 in [2] was 0.085 µM; in [5], 0.033 µM. The EC50 in [3] is 0.87 µM; in assay [7], 1.2 µM; in assay [8] it was 0.62 µM. In addition, the “Effect on patient derived GBM tumor cell proliferation” value in assay [4] is “inhibit”. In addition, the “Effect on EGFR and Akt1 levels, GBM PDX cell lines” value in assay [6] is “suppression of Hsp90 client proteins”. Further, in assay [9], the “Effect on Akt1 and ERK1 levels, MDA-MB-231” value is “suppression of Hsp90 client proteins”.
With `COc1ccnc(CN(CC2(c3ccc(F)cc3)CCOCC2)c2cc(Cl)nc(N)n2)c1C` [Compound C, 6-chloro-4-N-{[4-(4-fluorophenyl)oxan-4-yl]methyl}-4-N-[(4-methoxy-3-methylpyridin-2-yl)methyl]pyrimidine-2,4-diamine], the IC50 in assay [2] is greater than 4 µM. Also, in [5], the IC50 was determined as 0.087 µM and the inhibition constant Ki was 0.022 µM.
As for `COc1c(C)cnc(CN(CC2(c3cccc(C)n3)CCOCC2)c2cc(Cl)nc(N)n2)c1C` [Compound D, 6-chloro-4-N-[(4-methoxy-3,5-dimethylpyridin-2-yl)methyl]-4-N-{[4-(6-methylpyridin-2-yl)oxan-4-yl]methyl}pyrimidine-2,4-diamine], the figures for the inhibition constant Ki in [2] and in [5] were 0.068 µM and 0.014 µM, respectively. For the same compound, the IC50 in assay [2] worked out at 0.543 µM; in assay [5], 0.054 µM.
In the case of `COc1c(C)cnc(CN(CC2(c3ccccn3)CCOCC2)c2cc(Cl)nc(N)n2)c1C` [Compound E, 6-chloro-4-N-[(4-methoxy-3,5-dimethylpyridin-2-yl)methyl]-4-N-{[4-(pyridin-2-yl)oxan-4-yl]methyl}pyrimidine-2,4-diamine], in assay [2], the Ki stood at 0.138 µM and the IC50 was 1.1 µM. Further, in assay [5], the IC50 is 0.096 µM and the Ki amounted to 0.024 µM.
For `CC(C)c1cc(-c2n[nH]c(=O)n2-c2ccc3c(ccn3C)c2)c(O)cc1O` [Ganetespib, reference compound], the “Effect on TMRE fluorescence in HEI193 cells” value in assay [10] is reported as “significantly weaker response”.
